Entries after “also recorded” stand apart in the source; their conditions may differ.
Tests used:
hind limb lymphedema = experiment: Hind limb lymphedema model, paw thickness (implantable pellet); assay type: in vivo, mouse; conditions: for paw swelling, mean difference compared to control animals: implantable pellet 100 μg 9-cis RA, 30-day release
Method: All experiments were performed in accordance with the statutes from The Guide for the Care and Use of Laboratory Animals (National Research Council, 8th ed, 2011), the Animal Welfare Act, and other Federal regulations. The was approved by the University of Southern California Institutional Animal Care and Use Committee. Male and female Prox-1 green fluorescent protein (GFP) transgenic mice, 12-16 weeks old, weighing 20-30 g were bred within the University of Southern California animal facility. This GFP-expressing lymphatic reporter mouse was used because it conveniently allowed for the visualization of lymphatic vessels and other Prox1-expressing tissue under fluorescence microscopy, and facilitated the immunohistochemical staining of lymphatic vessels using anti-GFP primary antibody.
Under isoflurane-inhaled anesthesia, the lymphatic injury protocol was used on all experimental mice to induce hind limb lymphedema. This consisted of hind limb lymph node dissection followed by adjuvant radiation therapy. Using a dissecting microscope, a circumferential intradermal incision was made around the thigh, after which the ipsilateral inguinal fat pad, containing the inguinal lymph nodes, and ipsilateral popliteal lymph node were removed, as previously described. Visualization of the inguinal and popliteal lymphatics was facilitated by the injection of methylene blue dye on the dorsum of the paw and by the use of a green fluorescent microscope. Skin sutures were placed in 7-8 mm gaps to reinforce discontinuity of dermal lymphatics. The surgical area was then irradiated using a clinically relevant dose of 27.5 Gy radiation delivered by an XRad 320 device over a period of 5 days (550 cGy per day), which is the human equivalent dose for mouse.
Pellets were placed within the surgical wound intraoperatively and sutured in place to the adductor muscles of the thigh. Treatment pellets were custom-manufactured by Innovative Research of America (Sarasota, FL) to contain 100 μg of 9-cis RA, released over a period of 30 days using a matrix-driven delivery system. The carrier-binder excipients of the pellet matrix were synthetic and non-toxic, and included cholesterol, lactose, celluloses, phosphates, and stearates.
Prior to surgery, all animals were sex-, age-, and weight-matched to eliminate confounding variables. Paw thickness, the primary outcome, was measured weekly using electronic calipers for a total of 6 weeks. Paw thickness was normalized for each animal by calculating percent change relative to the unaffected paw. Hind limbs were photographed using a Nikon D5000 digital SLR flash camera using fixed distances, focal length, background, and positioning.

tail lymphedema [1] = experiment: Mouse tail secondary lymphedema model, tail volume (intraperitoneal injection); assay type: in vivo, BALB/c mice
Method: All experiments were performed in accordance with the The Guide for the Care and Use of Laboratory Animals (National Research Council, 8th ed, 2011) and the Animal Welfare Act. Our protocol was approved by the University of Southern California Institutional Animal Care and Use Committee. Fifty adult BALB/c mice, 12 to 14 weeks old, weighing between 21 and 30 g were purchased from Jackson Laboratories (Jackson, Bar Harbor, ME). Animals were maintained in a temperature and light-controlled environment with ad libitum access to a normal chow diet and water.
A previously well described tail model to induce lymphedema was modified in the present experiments. Mice were anesthetized using 2.5% isofluorane, and a 5-mm wide circumferential skin excision was made 20-mm from the base of the tail. Underlying lymphatic vessels were visualized using isosulfan blue and ligated under a dissecting surgical microscope. Daily bacitracin antibiotic ointment was applied to the surgical site to prevent wound infection and desiccation.
Animals were randomly assigned to one of five groups following surgery: control, 7 days, 14 days, 45 days, and delay. Mice received daily intraperitoneal injections of either 100 μL vehicle solution (90 μL sunflower seed oil/10 μL 100% ethanol) or 0.08 mg/kg 9-cis RA dissolved in 100 μL of vehicle solution [5]. The treatment administered to each group was: (1) control: vehicle for 45 days following surgery, (2) 7 day: 9-cis RA for 7 days, (3) 14 day: 9-cis RA for 14 days, (4) 45 day: 9-cis RA for 45 days, and (5) delay: 9-cis RA for 7 days beginning one week after surgery. Animals with necrotic tails or that developed surgical site infections were sacrificed and excluded from analysis.
Animals were photographed every five days for a 6-week duration, and tail diameter was measured using ImageJ (National Institutes of Health, Bethesda, MD). Measurements were taken at 5-mm intervals from the distal-most edge of the wound for a total of seven measurements per animal for every time point. Total distal tail volume was calculated using the truncated cone formula [8]. Percent change in distal tail volume was recorded, analyzed, and plotted using GraphPad Prism 7 (GraphPad Software, Inc.).

tail lymphedema [2] = experiment: Dermal and epidermal thickness, H&E stained tails; assay type: in vivo, BALB/c mice; conditions: 0.08 mg/kg daily i.p.; for mean epidermal tail thickness / dermal thickness: mean±standard error
Method: Tail specimens were collected on post-operative day 47. Specimens were harvested to include 1 cm proximal and 1 cm distal the wound, then divided to separate proximal and distal portions. Tails were inked to enable proper orientation, fixed in 10% neutral buffered formalin overnight, decalcified in 10% EDTA (pH: 7.3) for 6 days at 4° C., embedded in paraffin, sectioned at 3-5 μm, then stained with hematoxylin and eosin (H&E) or via immunohistochemical techniques. In summary, sections were deparaffinized, underwent antigen retrieval with sodium citrate buffer, incubated overnight with the primary antibody (1:200) at 4° C., washed, incubated with a suitable secondary antibody (1:200), then stained with immPACT DAB Substrate (Vector Laboratories, Inc, Burlingame, CA) and counterstained with Delafield Hematoxylin (Sigma-Aldrich, USA) diluted 1:4. Podoplanin (clone 8.1.1; sc-53533, Santa Cruz Biotechnology, Inc., Dallas, TX) was used to immunohistochemically mark lymphatics in paraffin embedded tail sections.
Slides were counterstained with hematoxylin and mounted. All images were obtained with a Keyence BZ-X700 microscope (Itasca, IL) and epidermal and dermal thickness was measured using ImageJ (National Institutes of Health, Betheseda, MD). The thickest part of the epidermis and dermis was measured in 5 high-power fields per section, as previously described. On the immunohistochemically stained slides, podoplanin stained vessels in the dermis and subcutis were quantified in ImageJ. Two high-power fields per section were randomly selected and then analyzed by a blinded reviewer. The reviewer scored the number of podoplanin stained vessels and the area (mm^2) of the dermis and subcutaneous tissue in each image. Lymphatic vessel density was calculated from the absolute lymphatic number normalized to the dermal and subcutaneous area measured (number of lymphatics/mm^2).^2 For the immunofluorescent stained slides, LYVE-1 stained vessels were quantified with ImageJ, to assess included lymphatic density, lymphatic vessel width, inter-lymphatic vessel distance, branching points, loops and blind-ended sacs.

CC1=C(/C=C/C(C)=C\C=C\C(C)=C\C(=O)O)C(C)(C)CCC1 [9-cis RA, 9-cis retinoic acid]
paw swelling, mean difference compared to control animals (hind limb lymphedema; postoperative week 3): 7% | paw swelling, mean difference compared to control animals (hind limb lymphedema; postoperative week 4): 12% | paw swelling, mean difference compared to control animals (hind limb lymphedema; postoperative week 5): 9% | paw swelling, mean difference compared to control animals (hind limb lymphedema; postoperative week 6): 11% | change in paw swelling/thickness within the treatment group over time (hind limb lymphedema; implantable pellet, between time points over 6 weeks): no significant differences in paw swelling are observed between time points | tail volume compared to control (tail lymphedema [1]; 0.08 mg/kg daily i.p. for 7 days): approached tail volumes similar to the lymphedematous control group past the 4-week time point; also recorded: no significant effect on tail lymphedema or dermal thickening | tail volume compared to control (tail lymphedema [1]; 0.08 mg/kg daily i.p. for 7 days beginning one week after surgery (delay group)): statistically significant decrease in tail volumes from day-14 onwards; also recorded: decreased tail volume | tail volume compared to control (tail lymphedema [1]; 0.08 mg/kg daily i.p. for 14 days): approached tail volumes similar to the lymphedematous control group past the 4-week time point; also recorded: no significant difference in tail volume | tail volume compared to control (tail lymphedema [1]; 0.08 mg/kg daily i.p., continuous (45-day/42-day group)): significantly smaller than the lymphedematous controls | dermal thickening compared to control (tail lymphedema [2]; 7-day group): no significant effect on tail lymphedema or dermal thickening | mean epidermal tail thickness (tail lymphedema [2]; 7-day group): 109.2±10.21 μm | dermal thickness (tail lymphedema [2]; 14-day group): 352.4±21.29 μm | mean epidermal tail thickness (tail lymphedema [2]; 14-day group): 52.07±2.616 μm | dermal thickness (tail lymphedema [2]; 45-day group): 525.2±25.09 μm | mean epidermal tail thickness (tail lymphedema [2]; 45-day group): 83.14±8.099 μm | dermal thickness (tail lymphedema [2]; delay group): 502±30.17 μm | mean epidermal tail thickness (tail lymphedema [2]; delay group): 73.51±10.94 μm

Source: patent US12329852B2, “Sustained-release 9-cis retinoic acid implantable drug delivery pellets for the prevention of postsurgical edema and lymphedema” (UNIVERSITY OF SOUTHERN CALIFORNIA, priority 2019, dated 2025)
